The text below walks through data of patent publication US9771377B2, “Synthesis of FR901464 and analogs with antitumor activity” (University of Pittsburgh—Of the Commonwealth System of …, priority 2012, dated 2017).

By GI50 is commonly meant the concentration that inhibits growth by half.

Test [1] deals with JHU 012. In words: Growth inhibition assay (MTS), JHU 012. In kind it is cell-based. The settings on record: 3 to 5 days. How it is done: (§1) Meayamycin, 4-TEGylated meayamycin, and 4-TEGylated FR901464 (right fragment) compounds were produced using the above protocols. The compounds were dissolved in dimethyl sulfoxide (DMSO) as 10 mM stocks and stored at −20° C. Prior to assays being performed, aliquots were thawed at room temperature and dilutions were prepared in RPMI 1640 medium containing 2% DMSO at 2×the desired concentration prior to addition to the cells.
(§2) The cells were grown at 37° C. in an atmosphere containing 5% carbon dioxide in corning cell culture flasks (25 cm^2) in RPMI 1640 cell culture medium containing 10% fetal bovine serum, 1% Penicillin/Streptomycin, and 1% L-Glutamine.
(§3) Cells were plated in 96 well plates at an initial density of 2,000 cells per well in 100 μL of medium and were incubated for 24 hours prior to compound addition. […] The compound was added to the cells at 2× the desired concentration in 100 μL cell culture medium. The cells were then incubated for an additional 3 to 5 days. Cell proliferation was measured using a commercial MTS solution (20 μL per well). The absorbance (at 490 nm and 630 nm) was measured by a Spectromax M2 plate reader (Molecular Devices). Each concentration treatment was done in quadruplets and the final numbers were averaged.

In test [2] the test system is HEK-293-II. Description: Growth inhibition assay (MTS), HEK-293-II. Type of test: cell-based. How it is done: as §1, §2, §3
Test [3] relates to PCI 13. Description: Growth inhibition assay (MTS), PCI 13. In kind it is cell-based. The note with it: 3 to 5 days. How it is done: as §1, §2, §3
Test [4] has as its system A549. Description: Growth inhibition assay (MTS), A549. In kind it is cell-based. The settings on record: 3 to 5 days. On the procedure: as §1, §2, §3
In test [5] the test system is HCT116. In words: Growth inhibition assay (MTS), HCT116. In kind it is cell-based. On the procedure:
as §1, §2, §3

Test [6] concerns cancer cell. In words: Cancer cell antiproliferative activity (background statement). In kind it is cell-based. An excerpt: This pharmacological profile for FR901464 has drawn considerable interest, focusing on its potential as an anticancer agent.
The test system of test [7] is MDA-MB-231. In words: Growth inhibition assay (MTS), MDA-MB-231. Type of test: cell-based. The note with it: 3 to 5 days. On the procedure:
as §1, §2, §3

The subject of test [8] is MCF-7. Description: Growth inhibition assay (MTS), MCF-7. In kind it is cell-based. How it is done: as §1, §2
Cells were plated in 96 well plates at an initial density of 2,000 cells per well in 100 μL of medium and were incubated for 24 hours prior to compound addition. Serial two-fold dilutions were used in this experiment from 100 nM to 0.000191 nM. The compound was added to the cells at 2× the desired concentration in 100 μL cell culture medium. The cells were then incubated for an additional 3 to 5 days. Cell proliferation was measured using a commercial MTS solution (20 μL per well). The absorbance (at 490 nm and 630 nm) was measured by a Spectromax M2 plate reader (Molecular Devices). Each concentration treatment was done in quadruplets and the final numbers were averaged.

In test [9] the test system is pre-mRNA splicing in HEK-293-II cells. Description: HEK-293-II cell-based splicing inhibition assay (luciferase, RT-PCR). How it is done: Splicing inhibition by PEGylated meayamycin was evaluated using the published HEK-293-II cell-based assay. In short, luciferase expression increases when pre-mRNA splicing is inhibited. Yang Gao et al., published online at Chem Bio Chem. Nov. 22, 2012 (DOI: 10.1002/cbic.201200558). […] (FIG. 1). Pre-mRNA splicing inhibition by 4-TEGylated meayamycin was examined in HEK-293-II cells over 72 h. The splicing inhibition, as manifested by the luciferase activity, in the 4-TEGylated meayamycin-treated cells persisted for 48 h, which was different from that in the meayamycin-treated cells. (FIG. 2).

Test [10] concerns MCF-7 cells. The note with it: MCF-7 cells at 20 nM; cited from earlier work.
In test [11] the test system is tumor. The note with it: mouse model; cited from earlier work.
[12] abbreviates: HEK-293-II, 3 to 5 days, MTS, read-out: GI50.

The structures appear in SMILES notation. Where two headings read alike, the source gives them in different places.

Consider `C=C[C@H]1OC(C)(C)C[C@@]2(CO2)[C@@H]1OCCOCCOCCOCCN=[N+]=[N-]` [4-TEGylated FR901464 (right fragment)], for which the GI50 in test [1] amounted to 2000 nM; in test [2] (setting [12]) it was 8900 nM; in test [3] it was 3700 nM; in [4] (Homo sapiens), 2200 nM; in test [5] (Homo sapiens, HCT-116, HCT116, 3 to 5 days, MTS, read-out: GI50) it was 2200 nM; in test [7] (Homo sapiens), 1500 nM. Moreover, the IC50 in test [5] (Homo sapiens, HCT-116, read-out: GI150, inhibition of HCT-116 proliferation) came out at 1500 nM. In addition, the “cancer cell antiproliferative activity” value in test [6] was “high cancer cell antiproliferative activity”.

Regarding `CC(/C=C/[C@H]1OC(C)(C)C[C@@]2(CO2)[C@@H]1CCCOCCOCCOCCN=[N+]=[N-])=C\C[C@@H]1O[C@H](C)C(NC(=O)/C=C\[C@H](C)OC(=O)N2CCOCC2)C[C@@H]1C` (stereo partly shown) [4-TEGylated-FR901464 analog], the “cancer cell antiproliferative activity” value in test [6] is recorded as “high cancer cell antiproliferative activity”.

Regarding `CC(=O)O[C@@H](C)/C=C\C(=O)N[C@@H]1C[C@H](C)[C@H](C/C=C(C)/C=C/[C@H]2OC(C)(C)C[C@@]3(CO3)[C@@H]2O)O[C@@H]1C` [meayamycin, reference compound], the GI50 is 4.7 nM in [1]; 7.8 nM in test [2] (setting [12]); 4.8 nM in [3]; 0.26 nM in test [4]; 0.8 nM in test [8] (3 to 5 days); 0.038 nM in test [5] (HCT116, 3 to 5 days, MTS, read-out: GI50). In test [7], this compound displayed a GI50 of 0.07 nM.

On to `CC(=O)O[C@@H](C)/C=C\C(=O)N[C@@H]1C[C@H](C)[C@H](C/C=C(C)/C=C/[C@H]2OC(C)(C)C[C@@]3(CO3)[C@@H]2OCCOCCOCCOCCN=[N+]=[N-])O[C@@H]1C` [4-TEGylated meayamycin], for which, in test [9] (HEK-293-II cells examined over 72 h, FIG. 2), the “time the splicing inhibition (luciferase activity) persisted” value worked out at 48 h. The “RT-PCR analysis of total RNA: pre-mRNA splicing” value in test [9] (HEK-293-II cells, FIG. 1) is listed as “inhibited pre-mRNA splicing”. Further, the IC50 in test [9] (HEK-293-II, luciferase, 16-h treatment, average of three independent experiments, read-out: IC150, inhibitory activity towards pre-mRNA splicing) was 2.4 nM. For the same compound, the 50% growth inhibitory concentration (GI50) in [2] came out at 46 nM; in [8] (Homo sapiens, MCF7, 3 to 5 days), 2.4 nM; in test [5] (Homo sapiens, HCT-116) it was 0.1 nM.

Take `CC(=O)O[C@@H](C)/C=C\C(=O)N[C@@H]1C[C@H](C)[C@H](C/C=C(C)/C=C/[C@H]2O[C@](C)(O)C[C@@]3(CO3)[C@@H]2O)O[C@@H]1C` [FR901464]: in test [10], the “mRNA levels of p53, p21, c-myc, and E2F-1” value is recorded as “lowers the mRNA levels”. In test [11], the “concentrations at which antitumor activity is exhibited” value is 0.056 to 0.18 mg/kg.

As for `C=C[C@H]1OC(C)(C)C[C@@]2(CO2)[C@@H]1O` [right fragment without PEGylation, (3R,4R,5R)-7,7-dimethyl-5-vinyl-1,6-dioxaspiro[2.5]octan-4-ol], in test [5] (even at 200 μM), the antiproliferation activity entry is listed as “no antiproliferation activity”.
